Experimental data from patent US20040121994A1, “Novel amides that activate soluble guanylate cyclase” (priority 2002, published 2004).

Target: T1, soluble guanylate cyclase (sGC), α1 and β1 subunits of guanylate cyclase expressed in Sf9 cells (Homo sapiens, UniProt Q02108+Q02153)
T1 construct: made in house; host or cells: Sf9 insect cells (baculovirus co-infection)
T1 sequence (Q02108 1-690): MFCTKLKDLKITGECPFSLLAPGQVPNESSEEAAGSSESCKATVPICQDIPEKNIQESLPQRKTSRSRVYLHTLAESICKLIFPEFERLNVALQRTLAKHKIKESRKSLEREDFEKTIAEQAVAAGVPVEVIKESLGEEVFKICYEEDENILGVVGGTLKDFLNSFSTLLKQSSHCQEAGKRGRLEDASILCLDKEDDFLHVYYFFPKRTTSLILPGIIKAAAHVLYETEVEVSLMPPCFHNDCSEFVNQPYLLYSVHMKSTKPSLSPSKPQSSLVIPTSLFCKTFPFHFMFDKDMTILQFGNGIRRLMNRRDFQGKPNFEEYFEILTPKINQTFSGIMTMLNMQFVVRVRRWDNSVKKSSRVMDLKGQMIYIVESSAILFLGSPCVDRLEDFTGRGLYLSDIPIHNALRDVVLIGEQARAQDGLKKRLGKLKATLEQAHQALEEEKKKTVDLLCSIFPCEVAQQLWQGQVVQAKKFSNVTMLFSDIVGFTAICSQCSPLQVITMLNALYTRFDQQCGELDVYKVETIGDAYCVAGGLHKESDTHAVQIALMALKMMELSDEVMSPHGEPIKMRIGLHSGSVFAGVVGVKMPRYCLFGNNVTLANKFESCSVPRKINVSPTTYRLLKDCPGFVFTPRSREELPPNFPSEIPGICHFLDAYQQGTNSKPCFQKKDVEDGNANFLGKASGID
T1 sequence (Q02153 1-619): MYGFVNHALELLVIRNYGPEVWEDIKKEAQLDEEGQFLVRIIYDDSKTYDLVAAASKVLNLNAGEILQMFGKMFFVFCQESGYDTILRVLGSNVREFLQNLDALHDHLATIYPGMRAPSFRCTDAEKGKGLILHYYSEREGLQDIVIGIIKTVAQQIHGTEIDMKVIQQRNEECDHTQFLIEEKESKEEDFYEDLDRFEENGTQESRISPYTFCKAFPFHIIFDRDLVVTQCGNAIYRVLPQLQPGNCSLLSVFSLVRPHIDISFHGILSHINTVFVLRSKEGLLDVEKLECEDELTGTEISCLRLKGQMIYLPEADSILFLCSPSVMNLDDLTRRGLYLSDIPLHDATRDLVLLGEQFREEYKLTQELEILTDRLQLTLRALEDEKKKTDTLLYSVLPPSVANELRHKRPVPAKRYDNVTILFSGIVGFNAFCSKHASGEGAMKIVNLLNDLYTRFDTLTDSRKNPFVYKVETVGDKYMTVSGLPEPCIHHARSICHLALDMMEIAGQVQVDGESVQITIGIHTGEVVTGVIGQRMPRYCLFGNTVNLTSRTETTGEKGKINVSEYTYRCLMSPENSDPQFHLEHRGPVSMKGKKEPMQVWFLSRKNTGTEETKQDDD
Experiment: Guanylate cyclase assay (formation of cyclic GMP from GTP)
Format: biochemical
Conditions: for Mean activation at 100 μM: (activity of compound at 100 μM with 1 μM SNP)−(activity of compound at 100 μM)/(activity of SNP at 1 μM)−(basal activity of sGC); for Mean efficacy of compound combined with 1 μM of SNP, [%]: compound at 100 μM with 1 μM sodium nitro prusside (SNP); for Emax at 100 µM: read-out: Mean basal efficacy of compound alone at 100 μM, [%]
Method: Sf9 cells were cultured in Sf-90011 medium supplemented with 10% (v/v) fetal calf serum at 28° C. to give a count of 6×10^5 cells/ml. The cells were then infected with a mixture of the virus stocks for the α1 and β1 subunits of guanylate cyclase at a multiplicity of infection of 0.1 pfu/cell. The cells were harvested 72 hours after infection and were pelleted by centrifugation. The resulting cell pellets were homogenized with Polytron homogenizer in 3 volumes of 20 mM Tris-HCl (pH 7.6) containing 1 mM EDTA, 5 mM dithiothreitol, 90 mM NaCl, 10% glycerol, and protease inhibitors mix (Roche Molecular Biochemicals). The homogenate was centrifuged at 50,000×g for 60 minutes and the supernatant was aliquotted and stored at −80° C.
Compounds of the present invention were dissolved in DMSO to make 100 mM and saved as stocks at −20° C. When compounds were tested, prepared 10-fold concentrated solutions with 10% DMSO. Then added 10 μl of 10-fold concentrated compound solutions to the reaction mixture of total 100 μl.
Guanylate cyclase activity was measured by the formation of cyclic GMP from GTP in a total volume of 100 μl. Guanylate cyclase-expressed Sf9 cell high-speed supernatant was used as an enzyme source for the assay. The reaction mixture containing 0.1 μl enzyme (Sf9 high-speed sup), compound solution, 50 mM Tris-HCl (pH 7.6), 4 mM MgCl2, 0.5 mM IBMX, 15 mM creatine phosphate, 20 μg creatine phosphokinase, 0.1% BSA and 1 mM GTP was incubated at 37° C. for 15 minutes. After the reaction, 0.9 ml of 50 mM sodium acetate buffer (pH 5.8) was added followed by boiling for 3 minutes to stop the reaction. The solution was centrifuged at 3000 rpm for 15 minutes at room temperature and cyclic GMP in 20 μl of the resulting supernatant was measured according to the protocol of Amersham cyclic GMP enzymeimmunoassay system (purchased from Sigma, catalogue number RPN 226).
Compounds of the present invention were tested at 100 μM with and without 1 μM sodium nitro prusside (SNP). 1-Benzyl-3-hydroxymethyl-2-furylindazole (YC-1) was included as a standard for each assay. The data was normalized with the activity of 100 μM YC-1 (without SNP) as 100%. Mean basal efficacy, in Table 1, was expressed as a percentage of 100 μM YC-1 (without SNP).
The mean activation, in Table 1, was calculated based on the formula: (activity of compound of the present invention at 100 μM with 1 μM SNP)−(activity of compound of the present invention at 100 μM)/(activity of SNP at 1 μM)−(basal activity of sGC).

[1] = normalized with the activity of 100 μM YC-1 (without SNP) as 100%
[2] = compound at 100 μM without SNP, normalized with the activity of 100 μM YC-1 (without SNP) as 100%

Molecule	Mean activation at 100 μM	Mean efficacy of compound combined with 1 μM of SNP, [%] [1] [%]	Mean basal efficacy of compound alone at 100 μM, [%] [2] [%]	Emax at 100 µM [2] [%]
2-[1-((2E)-3-{2-[(3-methylbutyl)thio]phenyl}-2-propenoyl)-4-piperidinyl]ethanol [Example 62]	4.7	161	136	
O=C(CCc1ccccc1Sc1ccc(Cl)cc1)NCCCCCO [Example 3, 3-{2-[(4-chlorophenyl)thio]phenyl}-N-(5-hydroxypentyl)propanamide]	2.3	29		2
O=C(CCc1ccccc1Sc1ccc(Cl)cc1)NC1CCC(O)CC1 (stereo not shown) [Example 4, 3-{2-[(4-chlorophenyl)thio]phenyl}-N-(4-hydroxycyclohexyl)propanamide]	2.6	28		1
Cc1ccc(Sc2ccccc2CCC(=O)NCCCCO)cc1 [Example 5, N-(4-hydroxybutyl)-3-{2-[(4-methylphenyl)thio]phenyl}propanamide]	5.1	96		14
CS(=O)(=O)NCCCCNC(=O)CCc1ccccc1Sc1ccc(Cl)cc1 [Example 6, 3-{2-[(4-chlorophenyl)thio]phenyl}-N-{4-[(methylsulfonyl)amino]butyl}propanamide]	2.7	11		2
O=C(CCc1cc(F)ccc1Sc1ccc(Cl)cc1)NCCCCO [Example 8, 3-{2-[(4-chlorophenyl)thio]-5-fluorophenyl}-N-(4-hydroxybutyl)propanamide]	3.1	16		0
CC(O)CCCNC(=O)CCc1ccccc1Sc1ccc(Cl)cc1 (stereo not shown) [Example 9, 3-{2-[(4-chlorophenyl)thio]phenyl}-N-(4-hydroxypentyl)propanamide]	4.0	22		4
CC(CC(=O)N(C)C1CCN(C)CC1)c1ccccc1Sc1ccc(Cl)cc1 (stereo not shown) [Example 10, 3-{2-[(4-chlorophenyl)thio]phenyl}-N-methyl-N-(1-methyl-4-piperidinyl)butanamide]	1.6	7		0
Cc1ccc(Sc2ncccc2/C=C/C(=O)NC2CCC(O)CC2)cc1 (stereo not shown) [Example 15, (2E)-N-(4-hydroxycyclohexyl)-3-{2-[(4-methylphenyl)thio]-3-pyridinyl}acrylamide]	4.7	204		126
O=C(/C=C/c1cccnc1Sc1ccc(Cl)cc1)NC1CCC(O)CC1 (stereo not shown) [Example 16, (2E)-3-{2-[(4-chlorophenyl)thio]-3-pyridinyl}-N-(4-hydroxycyclohexyl)acrylamide]	3.6	68		11
O=C(/C=C/c1cccnc1Sc1ccc(Cl)cc1Cl)NC1CCC(O)CC1 (stereo not shown) [Example 17, (2E)-3-{2-[(2,4-dichlorophenyl)thio]-3-pyridinyl}-N-(4-hydroxycyclohexyl)acrylamide]		138		38
O=C(/C=C/c1cccnc1Sc1ccc(Br)cc1)NC1CCC(O)CC1 (stereo not shown) [Example 18, (2E)-3-{2-[(4-bromophenyl)thio]-3-pyridinyl}-N-(4-hydroxycyclohexyl)acrylamide]		113		43

Results, then the molecule that gave them:

Mean activation at 100 μM	Mean efficacy of compound combined with 1 μM of SNP, [%] [1] [%]	Mean basal efficacy of compound alone at 100 μM, [%] [2] [%]	Emax at 100 µM [2] [%]	Molecule
2.4	25		4	O=C(CCc1ccccc1Sc1ccc(Cl)cc1)NCCCCO [Example 1, 3-{2-[(4-chlorophenyl)thio]phenyl}-N-(4-hydroxybutyl)propanamide]
2.6	84		9	CC(CCCC(C)(C)O)NC(=O)CCc1ccccc1Sc1ccc(Cl)cc1 (stereo not shown) [Example 2, 3-{2-[(4-chlorophenyl)thio]phenyl}-N-(5-hydroxy-1,5-dimethylhexyl)propanamide]
3.8	80		19	O=C(CCc1cccc(F)c1Sc1ccc(Cl)cc1)NCCCCO [Example 7, 3-{2-[(4-chlorophenyl)thio]-3-fluorophenyl}-N-(4-hydroxybutyl)propanamide]
2.8	6		1	CC(CC(=O)NCCc1ccncc1)c1ccccc1Sc1ccc(Cl)cc1 (stereo not shown) [Example 11, 3-{2-[(4-chlorophenyl)thio]phenyl}-N-[2-(4-pyridinyl)ethyl]butanamide]
1.5	20		2	CONCCCCNC(=O)CCc1ccccc1Sc1ccc(Cl)cc1 [Example 12, 3-{2-[(4-chlorophenyl)thio]phenyl}-N-[4-(methoxyamino)butyl]propanamide]
2.4	25		4	CNCCCCNC(=O)CCc1ccccc1Sc1ccc(Cl)cc1 [Example 13, 3-{2-[(4-chlorophenyl)thio]phenyl}-N-[4-(methylamino)butyl]propanamide]
4.4	124		30	CNCCCCCNC(=O)CCc1ccccc1Sc1ccc(Cl)cc1 [Example 14, 3-{2-[(4-chlorophenyl)thio]phenyl}-N-[5-(methylamino)pentyl]propanamide]
4.8	120		37	O=C(/C=C/c1cccnc1Sc1ccccc1)NC1CCC(O)CC1 (stereo not shown) [Example 19, (2E)-N-(4-hydroxycyclohexyl)-3-[2-(phenylthio)-3-pyridinyl]acrylamide]
